Test results as given in patent publication US12708665B2, “Anti-IL-1β antibody therapy in arrhythmogenic cardiomyopathy (ACM)” (Beth Israel Deaconess Medical Center, Inc., priority 2019, dated 2026).

Tested on: Dsg2^mut/mut mice
Assay: Cytokine arrays, cytokine expression in hearts of Dsg2^mut/mut mice treated with Bay 11-7082
Format: in vivo
Description: Quantitative data (mean±SEM; n=5) for expression of selected cytokines in hearts of vehicle-treated wildtype (WT) mice, Dsg2^mut/mut mice and Dsg2^mut/mut mice treated with Bay 11-7082. * P<0.05 compared to WT; †P<0.05 for treated vs. untreated Dsg2^mut/mut mice.
To characterize production of chemical mediators of the immune response in ACM, we used arrays to measure 111 different cytokines in the hearts of Dsg2^mut/mut mice and compared the amounts to those measured in the hearts of WT mice and Dsg2^mut/mut mice treated with Bay 11-7082. We observed substantial expression of multiple cytokines in the hearts of Dsg2^mut/mut mice. […] Powerful inflammatory mediators were expressed in Dsg2^mut/mut hearts including IL-1β (up by ~13-fold compared to WT hearts), IFNγ (~5-fold), IL-12 (~6-fold) and TNFα (~2-fold). […] Finally, there were increases in some molecules that fulfill anti-inflammatory roles such as IL-1Ra (up by ~4-fold).

[1] = cytokine expression level, mouse heart

Cc1ccc(S(=O)(=O)/C=C/C#N)cc1 [Bay11-7082]
LIX (CXCL5) level (ACM (Dsg2^mut/mut) mice treated with Bay 11-7082, result in words): markedly reduced
OPN expression (Dsg2^mut/mut mice treated with Bay 11-7082, result in words): reduced
Adiponectin, Dsg2^mut/mut (Bay11-7082) vs Dsg2^mut/mut [1]: <1
Adiponectin, Dsg2^mut/mut (Bay11-7082) vs WT [1]: <1
Amphiregulin, Dsg2^mut/mut (Bay11-7082) vs Dsg2^mut/mut [1]: <1
Amphiregulin, Dsg2^mut/mut (Bay11-7082) vs WT [1]: <1
Angiopoietin-1, Dsg2^mut/mut (Bay11-7082) vs Dsg2^mut/mut [1]: <1
Angiopoietin-1, Dsg2^mut/mut (Bay11-7082) vs WT [1]: <1
Angiopoietin-2, Dsg2^mut/mut (Bay11-7082) vs Dsg2^mut/mut [1]: 1-2
Angiopoietin-2, Dsg2^mut/mut (Bay11-7082) vs WT [1]: <1
Angiopoietin-like 3, Dsg2^mut/mut (Bay11-7082) vs Dsg2^mut/mut [1]: <1
Angiopoietin-like 3, Dsg2^mut/mut (Bay11-7082) vs WT [1]: <1
BAFF/BLyS/TNFSF13B, Dsg2^mut/mut (Bay11-7082) vs Dsg2^mut/mut [1]: <1
BAFF/BLyS/TNFSF13B, Dsg2^mut/mut (Bay11-7082) vs WT [1]: <1
C1qR1/CD93, Dsg2^mut/mut (Bay11-7082) vs Dsg2^mut/mut [1]: <1
C1qR1/CD93, Dsg2^mut/mut (Bay11-7082) vs WT [1]: <1
C-Reactive Protein/CRP, Dsg2^mut/mut (Bay11-7082) vs Dsg2^mut/mut [1]: <1
C-Reactive Protein/CRP, Dsg2^mut/mut (Bay11-7082) vs WT [1]: <1
CCL2/JE/MCP-1, Dsg2^mut/mut (Bay11-7082) vs Dsg2^mut/mut [1]: <1
CCL2/JE/MCP-1, Dsg2^mut/mut (Bay11-7082) vs WT [1]: <1
CCL3/CCL4/MIP-1a/B, Dsg2^mut/mut (Bay11-7082) vs Dsg2^mut/mut [1]: <1
CCL3/CCL4/MIP-1a/B, Dsg2^mut/mut (Bay11-7082) vs WT [1]: <1
CCL5/RANTES, Dsg2^mut/mut (Bay11-7082) vs Dsg2^mut/mut [1]: <1
CCL5/RANTES, Dsg2^mut/mut (Bay11-7082) vs WT [1]: <1
CCL6/C10, Dsg2^mut/mut (Bay11-7082) vs Dsg2^mut/mut [1]: <1
CCL6/C10, Dsg2^mut/mut (Bay11-7082) vs WT [1]: <1
CCL17/TARC, Dsg2^mut/mut (Bay11-7082) vs Dsg2^mut/mut [1]: <1
CCL17/TARC, Dsg2^mut/mut (Bay11-7082) vs WT [1]: <1
CCL19/MIP-3B, Dsg2^mut/mut (Bay11-7082) vs Dsg2^mut/mut [1]: <1
CCL19/MIP-3B, Dsg2^mut/mut (Bay11-7082) vs WT [1]: <1
CCL20/MIP-3a, Dsg2^mut/mut (Bay11-7082) vs Dsg2^mut/mut [1]: <1
CCL20/MIP-3a, Dsg2^mut/mut (Bay11-7082) vs WT [1]: <1
CCL21/6Ckine, Dsg2^mut/mut (Bay11-7082) vs Dsg2^mut/mut [1]: <1
CCL21/6Ckine, Dsg2^mut/mut (Bay11-7082) vs WT [1]: <1
CCL22/MDC, Dsg2^mut/mut (Bay11-7082) vs Dsg2^mut/mut [1]: <1
CCL22/MDC, Dsg2^mut/mut (Bay11-7082) vs WT [1]: <1
CD14, Dsg2^mut/mut (Bay11-7082) vs Dsg2^mut/mut [1]: 1-2
CD14, Dsg2^mut/mut (Bay11-7082) vs WT [1]: <1
CD40/TNFRSF5, Dsg2^mut/mut (Bay11-7082) vs Dsg2^mut/mut [1]: <1
CD40/TNFRSF5, Dsg2^mut/mut (Bay11-7082) vs WT [1]: <1
CD160, Dsg2^mut/mut (Bay11-7082) vs Dsg2^mut/mut [1]: <1
CD160, Dsg2^mut/mut (Bay11-7082) vs WT [1]: <1
CX3CL1/Fractalkine, Dsg2^mut/mut (Bay11-7082) vs Dsg2^mut/mut [1]: <1
CX3CL1/Fractalkine, Dsg2^mut/mut (Bay11-7082) vs WT [1]: <1
CXCL9/MIG, Dsg2^mut/mut (Bay11-7082) vs Dsg2^mut/mut [1]: <1
CXCL9/MIG, Dsg2^mut/mut (Bay11-7082) vs WT [1]: <1
CXCL13/BLC/BCA-1, Dsg2^mut/mut (Bay11-7082) vs Dsg2^mut/mut [1]: <1
CXCL13/BLC/BCA-1, Dsg2^mut/mut (Bay11-7082) vs WT [1]: 2-4
CXCL16, Dsg2^mut/mut (Bay11-7082) vs Dsg2^mut/mut [1]: <1
CXCL16, Dsg2^mut/mut (Bay11-7082) vs WT [1]: <1
Chemerin, Dsg2^mut/mut (Bay11-7082) vs Dsg2^mut/mut [1]: <1
Chemerin, Dsg2^mut/mut (Bay11-7082) vs WT [1]: <1
Chitinase 3-like 1, Dsg2^mut/mut (Bay11-7082) vs Dsg2^mut/mut [1]: <1
Chitinase 3-like 1, Dsg2^mut/mut (Bay11-7082) vs WT [1]: <1
Coagulation Factor III/Tissue Factor, Dsg2^mut/mut (Bay11-7082) vs Dsg2^mut/mut [1]: <1
Coagulation Factor III/Tissue Factor, Dsg2^mut/mut (Bay11-7082) vs WT [1]: <1
Complement Component C5/C5a, Dsg2^mut/mut (Bay11-7082) vs Dsg2^mut/mut [1]: <1
Complement Component C5/C5a, Dsg2^mut/mut (Bay11-7082) vs WT [1]: <1
Complement Factor D, Dsg2^mut/mut (Bay11-7082) vs Dsg2^mut/mut [1]: <1
Complement Factor D, Dsg2^mut/mut (Bay11-7082) vs WT [1]: <1
Cystatin C, Dsg2^mut/mut (Bay11-7082) vs Dsg2^mut/mut [1]: <1
Cystatin C, Dsg2^mut/mut (Bay11-7082) vs WT [1]: <1
DKK-1, Dsg2^mut/mut (Bay11-7082) vs Dsg2^mut/mut [1]: <1
DKK-1, Dsg2^mut/mut (Bay11-7082) vs WT [1]: <1
DPPIV/CD26, Dsg2^mut/mut (Bay11-7082) vs Dsg2^mut/mut [1]: <1
DPPIV/CD26, Dsg2^mut/mut (Bay11-7082) vs WT [1]: 1-2
E-Selectin/CD62E, Dsg2^mut/mut (Bay11-7082) vs Dsg2^mut/mut [1]: <1
E-Selectin/CD62E, Dsg2^mut/mut (Bay11-7082) vs WT [1]: <1
EGF, Dsg2^mut/mut (Bay11-7082) vs Dsg2^mut/mut [1]: <1
EGF, Dsg2^mut/mut (Bay11-7082) vs WT [1]: 1-2
Endoglin/CD105, Dsg2^mut/mut (Bay11-7082) vs Dsg2^mut/mut [1]: <1
Endoglin/CD105, Dsg2^mut/mut (Bay11-7082) vs WT [1]: <1
Endostatin, Dsg2^mut/mut (Bay11-7082) vs Dsg2^mut/mut [1]: <1
Endostatin, Dsg2^mut/mut (Bay11-7082) vs WT [1]: <1
Eotaxin (CCL11), Dsg2^mut/mut (Bay11-7082) vs Dsg2^mut/mut [1]: <1
Eotaxin (CCL11), Dsg2^mut/mut (Bay11-7082) vs WT [1]: <1
FGF acidic, Dsg2^mut/mut (Bay11-7082) vs Dsg2^mut/mut [1]: <1
FGF acidic, Dsg2^mut/mut (Bay11-7082) vs WT [1]: <1
FGF-21, Dsg2^mut/mut (Bay11-7082) vs Dsg2^mut/mut [1]: <1
FGF-21, Dsg2^mut/mut (Bay11-7082) vs WT [1]: <1
FLt-3 Ligand, Dsg2^mut/mut (Bay11-7082) vs Dsg2^mut/mut [1]: <1
FLt-3 Ligand, Dsg2^mut/mut (Bay11-7082) vs WT [1]: <1
Fetuin A/AHSG, Dsg2^mut/mut (Bay11-7082) vs Dsg2^mut/mut [1]: <1
Fetuin A/AHSG, Dsg2^mut/mut (Bay11-7082) vs WT [1]: <1
G-CSF, Dsg2^mut/mut (Bay11-7082) vs Dsg2^mut/mut [1]: <1
G-CSF, Dsg2^mut/mut (Bay11-7082) vs WT [1]: 1-2
GDF-15, Dsg2^mut/mut (Bay11-7082) vs Dsg2^mut/mut [1]: <1
GDF-15, Dsg2^mut/mut (Bay11-7082) vs WT [1]: <1
GM-CSF, Dsg2^mut/mut (Bay11-7082) vs Dsg2^mut/mut [1]: <1
GM-CSF, Dsg2^mut/mut (Bay11-7082) vs WT [1]: <1
Gas 6, Dsg2^mut/mut (Bay11-7082) vs Dsg2^mut/mut [1]: <1
Gas 6, Dsg2^mut/mut (Bay11-7082) vs WT [1]: <1
HGF, Dsg2^mut/mut (Bay11-7082) vs Dsg2^mut/mut [1]: <1
HGF, Dsg2^mut/mut (Bay11-7082) vs WT [1]: 4-6
I-TAC (CXCL11), Dsg2^mut/mut (Bay11-7082) vs Dsg2^mut/mut [1]: <1
I-TAC (CXCL11), Dsg2^mut/mut (Bay11-7082) vs WT [1]: <1
IFN-y, Dsg2^mut/mut (Bay11-7082) vs Dsg2^mut/mut [1]: <1
IFN-y, Dsg2^mut/mut (Bay11-7082) vs WT [1]: 1-2
IGFBP-1, Dsg2^mut/mut (Bay11-7082) vs Dsg2^mut/mut [1]: <1
IGFBP-1, Dsg2^mut/mut (Bay11-7082) vs WT [1]: 1-2
IGFBP-2, Dsg2^mut/mut (Bay11-7082) vs Dsg2^mut/mut [1]: <1
IGFBP-2, Dsg2^mut/mut (Bay11-7082) vs WT [1]: <1
IGFBP-3, Dsg2^mut/mut (Bay11-7082) vs Dsg2^mut/mut [1]: <1
IGFBP-3, Dsg2^mut/mut (Bay11-7082) vs WT [1]: <1
IGFBP-5, Dsg2^mut/mut (Bay11-7082) vs Dsg2^mut/mut [1]: <1
IGFBP-5, Dsg2^mut/mut (Bay11-7082) vs WT [1]: <1
IGFBP-6, Dsg2^mut/mut (Bay11-7082) vs Dsg2^mut/mut [1]: <1
IGFBP-6, Dsg2^mut/mut (Bay11-7082) vs WT [1]: <1
IL-1a (IL-1F1), Dsg2^mut/mut (Bay11-7082) vs Dsg2^mut/mut [1]: <1
IL-1a (IL-1F1), Dsg2^mut/mut (Bay11-7082) vs WT [1]: <1
IL-1ra (IL-1F3), Dsg2^mut/mut (Bay11-7082) vs Dsg2^mut/mut [1]: <1
IL-1ra (IL-1F3), Dsg2^mut/mut (Bay11-7082) vs WT [1]: 1-2
